In brackets after ≈: the same amount, converted by molar mass.
Experiments:
Assay in all cases: microbe, parasite or virus in culture
[1] = system: rifampin (RMP)-resistant Mtb (SRI 1367); assay type: cell-based, Mycobacterium tuberculosis; conditions: for MIC: Mycobacterium tuberculosis, read-out: MIC RMP-R
[2] = system: ofloxacin (OFX)-resistant Mtb (SRI 4000); assay type: cell-based, Mycobacterium tuberculosis; conditions: for MIC: Mycobacterium tuberculosis, read-out: MIC OFX-R
[3] = system: isoniazid (INH)-resistant Mtb (SRI 1369); assay type: cell-based, Mycobacterium tuberculosis; conditions: for MIC: Mycobacterium tuberculosis, read-out: MIC INH-R
[4] = system: ATCC 35837 Ethambutol Resistant; assay type: cell-based; conditions: Mycobacterium tuberculosis, ATCC35837, read-out: MIC Value, ATCC 35837 Ethambutol Resistant
[5] = system: ATCC 35827 Kanamycin Resistant; assay type: cell-based; conditions: Mycobacterium tuberculosis, ATCC35827, read-out: MIC Value, ATCC 35827 Kanamycin Resistant
[6] = system: ATCC 35821 Para-aminosalicylic Resistant; assay type: cell-based, Mycobacterium tuberculosis; conditions: for MIC: Mycobacterium tuberculosis, ATCC35821, read-out: MIC Value, ATCC 35821 Para-aminosalicylic Resistant
[7] = system: ATCC 35830 Ethionamide Resistant; assay type: cell-based; conditions: Mycobacterium tuberculosis, ATCC35830, read-out: MIC Value, ATCC 35830 Ethionamide Resistant
[8] = system: ATCC 35822 Isoniazid Resistant; assay type: cell-based; conditions: Mycobacterium tuberculosis, ATCC35822, read-out: MIC Value, ATCC 35822 Isoniazid Resistant
[9] = system: ATCC 35820 Streptomycin Resistant; assay type: cell-based; conditions: Mycobacterium tuberculosis, ATCC35820, read-out: MIC Value, ATCC 35820 Streptomycin Resistant

Row | Structure (SMILES) | MIC [4] | MIC [5] | MIC [7] | MIC [8] | MIC [9] | further results
1 | N=C(NCCCCCCNC(=N)NC(=N)N1CCN(c2cc3c(cc2F)c(=O)c(C(=O)O)cn3C2CC2)CC1)NC(=N)N1CCN(c2cc3c(cc2F)c(=O)c(C(=O)O)cn3C2CC2)CC1 [BVS-10A] |  |  |  |  |  | % inhibition at the MIC concentration [1]: 58%; MIC [1]: 6.25 µg/mL (≈ 6.85 µM); % inhibition at the MIC concentration [2]: 74%; MIC [2]: 0.781 µg/mL (≈ 0.855 µM); % inhibition at the MIC concentration [3]: 53%; MIC [3]: 1.56 µg/mL (≈ 1.71 µM)
2 | CC1COc2c(N3CCN(C(=N)NC#N)CC3)c(F)cc3c(=O)c(C(=O)O)cn1c23 (stereo not drawn) [BVS-60C (XVII)] | 0.625 µg/mL (≈ 1.51 µM) | 0.625 µg/mL (≈ 1.51 µM) | 0.312 µg/mL (≈ 0.753 µM) | 0.625 µg/mL (≈ 1.51 µM) | 0.312 µg/mL (≈ 0.753 µM) | MIC [6]: 0.625 to 1.25 µg/mL (≈ 1.51 to 3.02 µM)
3 | C[C@@H]1COc2c(N3CCN(C(=N)NC(=N)N4CCN(c5c(F)cc6c(=O)c(C(=O)O)cn7c6c5OC[C@@H]7C)CC4)CC3)c(F)cc3c(=O)c(C(=O)O)cn1c23 [BVS-76D (XVII)] | 0.312 to 0.625 µg/mL (≈ 0.41 to 0.82 µM) | 0.625 µg/mL (≈ 0.82 µM) | 0.156 µg/mL (≈ 0.205 µM) | 0.625 µg/mL (≈ 0.82 µM) | 0.312 µg/mL (≈ 0.41 µM) | MIC [6]: 0.625 to 1.25 µg/mL (≈ 0.82 to 1.64 µM)
4 | C[C@@H]1COc2c(N3CCN(C(=N)NC(=N)NCCCCCCNC(=N)NC(=N)N4CCN(c5c(F)cc6c(=O)c(C(=O)O)cn7c6c5OC[C@@H]7C)CC4)CC3)c(F)cc3c(=O)c(C(=O)O)cn1c23 [BVS-85A (XVII)] | 1.25 µg/mL (≈ 1.32 µM) | 1.25 to 2.5 µg/mL (≈ 1.32 to 2.65 µM) | 0.625 µg/mL (≈ 0.661 µM) | 1.25 µg/mL (≈ 1.32 µM) | 0.625 µg/mL (≈ 0.661 µM) | MIC [6]: 2.5 µg/mL (≈ 2.65 µM)
5 | CC[C@@H](CO)NCCN[C@@H](CC)CO [Ethambutol, reference compound] | > 8 µg/mL |  |  |  |  | 
6 | CCc1cc(C(N)=S)ccn1 [Ethionamide, reference compound] |  |  | > 8 µg/mL |  |  | 
7 | NNC(=O)c1ccncc1 [Isoniazid, isoniazid, reference compound] |  |  |  | > 8 µg/mL |  | % inhibition at the MIC concentration [1]: 86%; MIC [1]: 0.02 µg/mL (≈ 0.146 µM)
8 | NC[C@H]1O[C@H](O[C@H]2[C@H](O)[C@@H](O[C@H]3O[C@H](CO)[C@@H](O)[C@H](N)[C@H]3O)[C@H](N)C[C@@H]2N)[C@H](O)[C@@H](O)[C@@H]1O [Kanamycin, reference compound] |  | > 8 µg/mL |  |  |  | 
9 | Nc1ccc(C(=O)O)c(O)c1 [Para-aminosalicylic, reference compound] |  |  |  |  |  | MIC Value, ATCC 35821 Para-aminosalicylic Resistant [6]: >8 µg/mL
10 | CO[C@H]1/C=C/O[C@@]2(C)Oc3c(C)c(O)c4c(O)c(c(/C=N/N5CCN(C)CC5)c(O)c4c3C2=O)NC(=O)/C(C)=C\C=C\[C@H](C)[C@H](O)[C@@H](C)[C@@H](O)[C@@H](C)[C@H](OC(C)=O)[C@@H]1C [Rifampin, rifampin, reference compound] |  |  |  |  |  | % inhibition at the MIC concentration [2]: 75%; MIC [2]: 0.195 µg/mL (≈ 0.237 µM); % inhibition at the MIC concentration [3]: 67%; MIC [3]: 0.049 µg/mL (≈ 0.0595 µM)
11 | [H]/N=C(/N)N[C@H]1[C@H](O)[C@@H](O)[C@H](O[C@@H]2O[C@@H](C)[C@](O)(C=O)[C@H]2O[C@@H]2O[C@@H](CO)[C@H](O)[C@@H](O)[C@@H]2NC)[C@@H](N/C(N)=N\[H])[C@@H]1O [Streptomycin, reference compound] |  |  |  |  | > 8 µg/mL | 
